In patent US20190029257A1, “APPLICATION FOR HERBICIDE-TOLERANT PROTEIN” (BEIJING DABEINONG TECHNOLOGY GROUP CO., LTD., priority 2016, published 2019):

Experiments:
Assay type in all cases: in vivo
[1] = system: all the transformed Arabidopsis thaliana T1 plants (ALT-1, ALT-2 and ALT-3); experiment: Herbicide tolerance of Arabidopsis thaliana T1 plants; conditions: 1-fold field concentration; summary of Table 2
Description: (§1) At cytoplasmic ALT-1-01 T1 plants, At chloroplastic ALT-1-01 T1 plants, At cytoplasmic ALT-2-01 T1 plants, At chloroplastic ALT-2-01 T1 plants, At cytoplasmic ALT-3-01 T1 plants, At chloroplastic ALT-3-01 T1 plants and wild-type Arabidopsis thaliana plants were sprayed with halosulfuron-methyl (34 g ai/ha, 1-fold field concentration) and a blank solvent (water), respectively. Plants were counted for the resistance situations 14 days after spraying: those having a consistent growth status with the blank solvent (water) group after 14 days were classified as highly resistant plants, those having a bolting height less than ½ of that of the blank solvent (water) group after 14 days were classified as moderately resistant plants, those still not capable of bolting after 14 days were classified as poorly resistant plants, and those dead after 14 days were classified as non-resistant plants. Since each Arabidopsis thaliana T1 plant was an independent transformation event, a significant difference in individual T1 responses could be expected at a given dose.
At cytoplasmic ALT-1-01 T1 plants, At chloroplastic ALT-1-01 T1 plants, At cytoplasmic ALT-2-01 T1 plants, At chloroplastic ALT-2-01 T1 plants, At cytoplasmic ALT-3-01 T1 plants, At chloroplastic ALT-3-01 T1 plants and wild-type Arabidopsis thaliana plants in Example 4 were sprayed with iodosulfuron-methyl (10 g ai/ha, 1-fold field concentration), mesosulfuron (14 g ai/ha, 1-fold field concentration) and oxasulfuron (60 g ai/ha, 1-fold field concentration), respectively, in addition to halosulfuron-methyl (34 g ai/ha, 1-fold field concentration) and the blank solvent (water). Plants were counted for the resistance situation 14 days after spraying: those having a consistent growth status with the blank solvent (water) group after 14 days were classified as highly resistant plants, those having a bolting height less than ½ of that of the blank solvent (water) group after 14 days were classified as moderately resistant plants, those still not capable of bolting after 14 days were classified as poorly resistant plants, and those dead after 14 days were classified as non-resistant plants. Since each Arabidopsis thaliana T1 plant was an independent transformation event, a significant difference in individual T1 responses could be expected at a given dose.

[2] = system: At chloroplastic ALT-1-01 T1 plants; experiment: Herbicide tolerance of Arabidopsis thaliana T1 plants (spray, resistance classes counted); conditions: number of plants 14 days after spraying
Description: (§2) T1 transformants were initially selected from the background of untransformed seeds using a glufosinate selection scheme. About 40000 T1 seeds were screened, and 380 T1 positive transformants (PAT gene) were identified with a transformation efficiency of about 0.95%. The plants that were transformed with the recombinant expression vector DBN100632 were Arabidopsis thaliana plants having an ALT-1-01 nucleotide sequence located in the cytoplasm introduced (At cytoplasmic ALT-1-01), and the plants that were transformed with the recombinant expression vector DBN100631 were Arabidopsis thaliana plants having an ALT-1-01 nucleotide sequence located in the chloroplast introduced (At chloroplastic ALT-1-01); the plants that were transformed with the recombinant expression vector DBN100634 were Arabidopsis thaliana plants having an ALT-2-01 nucleotide sequence located in the cytoplasm introduced (At cytoplasmic ALT-2-01), and the plants that were transformed with the recombinant expression vector DBN100633 were Arabidopsis thaliana plants having an ALT-2-01 nucleotide sequence located in the chloroplast introduced (At chloroplastic ALT-2-01); and the plants that were transformed with the recombinant expression vector DBN100636 were Arabidopsis thaliana plants having an ALT-3-01 nucleotide sequence located in the cytoplasm introduced (At cytoplasmic ALT-3-01), and the plants that were transformed with the recombinant expression vector DBN100635 were Arabidopsis thaliana plants having an ALT-3-01 nucleotide sequence located in the chloroplast introduced (At chloroplastic ALT-3-01). The herbicide tolerance effects of At cytoplasmic ALT-1-01 T1 plants, At chloroplastic ALT-1-01 T1 plants, At cytoplasmic ALT-2-01 T1 plants, At chloroplastic ALT-2-01 T1 plants, At cytoplasmic ALT-3-01 T1 plants, At chloroplastic ALT-3-01 T1 plants and wild-type Arabidopsis thaliana plants on halosulfuron-methyl were detected (14 days after sowing), respectively.
as §1, with “At cytoplasmic ALT-1-01 T1 plants, At chloroplastic ALT-1-01 T1 plants, At cytoplasmic ALT-2-01 T1 plants, At chloroplastic ALT-2-01 T1 plants, At cytoplasmic ALT-3-01 T1 plants, At chloroplastic ALT-3-01 T1 plants and wild-type Arabidopsis thaliana plants were sprayed with halosulfuron-methyl (34 g ai/ha, 1-fold field concentration) and a blank solvent (water), respectively.” left out
(§3) […] Plants were counted for the resistance situation 14 days after spraying: those having a consistent growth status with the blank solvent (water) group after 14 days were classified as highly resistant plants, those having a bolting height less than ½ of that of the blank solvent (water) group after 14 days were classified as moderately resistant plants, those still not capable of bolting after 14 days were classified as poorly resistant plants, and those dead after 14 days were classified as non-resistant plants. Since each Arabidopsis thaliana T1 plant was an independent transformation event, a significant difference in individual T1 responses could be expected at a given dose.

[3] = system: At chloroplastic ALT-2-01 T1 plants; experiment: as above; conditions: number of plants 14 days after spraying
Description: as §2
as §3, with “situations” for “situation”
as §3

[4] = system: At chloroplastic ALT-3-01 T1 plants; experiment: as above; conditions: number of plants 14 days after spraying, Total 32
Description: as §2
as §3, with “situations” for “situation”
as §3

[5] = system: At cytoplasmic ALT-1-01 T1 plants; experiment: as above; conditions: number of plants 14 days after spraying, Total 29
Description: as §2
as §3, with “situations” for “situation”
as §3

[6] = system: At cytoplasmic ALT-2-01 T1 plants; experiment: as above; conditions: number of plants 14 days after spraying
Description: as §2
as §3, with “situations” for “situation”
as §3

[7] = system: At cytoplasmic ALT-3-01 T1 plants; experiment: as above; conditions: number of plants 14 days after spraying, Total 30
Description: as §2
as §3, with “situations” for “situation”
as §3

[8] = system: wild-type Arabidopsis thaliana plants; experiment: Herbicide tolerance of Arabidopsis thaliana plants (spray, resistance classes counted); conditions: 10 g ai/ha (1x Iod.); number of plants 14 days after spraying; Total 29
Description: as §2, §1
At cytoplasmic ALT-1-01 T1 plants, At chloroplastic ALT-1-01 T1 plants, At cytoplasmic ALT-2-01 T1 plants, At chloroplastic ALT-2-01 T1 plants, At cytoplasmic ALT-3-01 T1 plants, At chloroplastic ALT-3-01 T1 plants and wild-type Arabidopsis thaliana plants in Example 4 were sprayed with iodosulfuron-methyl (10 g ai/ha, 1-fold field concentration), mesosulfuron (14 g ai/ha, 1-fold field concentration) and oxasulfuron (60 g ai/ha, 1-fold field concentration), respectively, in addition to halosulfuron-methyl (34 g ai/ha, 1-fold field concentration) and the blank solvent (water). […]

[9] = system: Gm chloroplastic ALT-1-01 soybean plants; experiment: Glyphosate tolerance of soybean plants (herbicide damage rate); conditions: 840 g ae/ha, 1-fold field concentration; 14 DAT
Description: (§4) The herbicide tolerance effects of Gm cytoplasmic ALT-1-01 soybean plants, Gm chloroplastic ALT-1-01 soybean plants, Gm cytoplasmic ALT-2-01 soybean plants, Gm chloroplastic ALT-2-01 soybean plants, Gm cytoplasmic ALT-3-01 soybean plants, Gm chloroplastic ALT-3-01 soybean plants and wild-type soybean plants on glyphosate were detected (at seedling stage), respectively.
(§5) 2 strains from Gm cytoplasmic ALT-1-01 soybean plants, Gm chloroplastic ALT-1-01 soybean plants, Gm cytoplasmic ALT-2-01 soybean plants, Gm chloroplastic ALT-2-01 soybean plants, Gm cytoplasmic ALT-3-01 soybean plants, Gm chloroplastic ALT-3-01 soybean plants and wild-type soybean plants were respectively taken each, and 10-15 plants were selected from each strain and tested. The plants above were sprayed with glyphosate (840 g ae/ha, 1-fold field concentration) and a blank solvent (water). The herbicide damage rate was measured for each plant according to the phytotoxicity symptoms 14 days after spraying (14 DAT): herbicide damage rate (%)=Σ(number of damaged plants at the same level×level number)/(total number of plants×highest level).

[10] = system: Gm chloroplastic ALT-2-01 soybean plants; experiment: as above; conditions: 840 g ae/ha, 1-fold field concentration; 14 DAT
Description: as §4, §5

[11] = system: Gm chloroplastic ALT-3-01 soybean plants; experiment: as above; conditions: 840 g ae/ha, 1-fold field concentration; 14 DAT
Description: as §4, §5

[12] = system: Gm cytoplasmic ALT-1-01 soybean plants; experiment: as above; conditions: 840 g ae/ha, 1-fold field concentration; 14 DAT
Description: as §4, §5

[13] = system: Gm cytoplasmic ALT-2-01 soybean plants; experiment: as above; conditions: 840 g ae/ha, 1-fold field concentration; 14 DAT
Description: as §4, §5

[14] = system: Gm cytoplasmic ALT-3-01 soybean plants; experiment: as above; conditions: 840 g ae/ha, 1-fold field concentration; 14 DAT
Description: as §4, §5

[15] = system: wild-type soybean plants (CK1); experiment: as above; conditions: 840 g ae/ha, 1-fold field concentration; 14 DAT
Description: as §4, §5

[16] = 14 g ai/ha (1x Mes.), genotype cell prints only "At"

Cc1cc(C)nc(NC(=O)NS(=O)(=O)c2ccccc2C(=O)OC2COC2)n1 [oxasulfuron]
ability of the transformed plants to degrade the herbicide [1]: did not exhibit the ability to degrade
degree of damage, transformed versus wild-type plants [1]: no difference

COC(=O)c1ccc(CNS(C)(=O)=O)cc1S(=O)(=O)NC(=O)Nc1nc(OC)cc(OC)n1 [mesosulfuron]
Highly resistant ([2]; 14 g ai/ha (1x Mes.), Total 32): 0
Moderately resistant ([2]; 14 g ai/ha (1x Mes.), Total 32): 0
Non-resistant ([2]; 14 g ai/ha (1x Mes.), Total 32): 32
Poorly resistant ([2]; 14 g ai/ha (1x Mes.), Total 32): 0
Highly resistant ([3]; 14 g ai/ha (1x Mes.), Total 30): 0
Moderately resistant ([3]; 14 g ai/ha (1x Mes.), Total 30): 0
Non-resistant ([3]; 14 g ai/ha (1x Mes.), Total 30): 30
Poorly resistant ([3]; 14 g ai/ha (1x Mes.), Total 30): 0
Highly resistant [4, 16]: 0
Moderately resistant [4, 16]: 0
Non-resistant [4, 16]: 32
Poorly resistant [4, 16]: 0
Highly resistant ([5]; 14 g ai/ha (1x Mes.)): 0
Moderately resistant ([5]; 14 g ai/ha (1x Mes.)): 0
Non-resistant ([5]; 14 g ai/ha (1x Mes.)): 29
Poorly resistant ([5]; 14 g ai/ha (1x Mes.)): 0
Highly resistant ([6]; 14 g ai/ha (1x Mes.), Total 32): 0
Moderately resistant ([6]; 14 g ai/ha (1x Mes.), Total 32): 0
Non-resistant ([6]; 14 g ai/ha (1x Mes.), Total 32): 32
Poorly resistant ([6]; 14 g ai/ha (1x Mes.), Total 32): 0
Highly resistant ([7]; 14 g ai/ha (1x Mes.)): 0
Moderately resistant ([7]; 14 g ai/ha (1x Mes.)): 0
Non-resistant ([7]; 14 g ai/ha (1x Mes.)): 30
Poorly resistant ([7]; 14 g ai/ha (1x Mes.)): 0
ability of the transformed plants to degrade the herbicide [1]: did not exhibit the ability to degrade
degree of damage, transformed versus wild-type plants [1]: no difference

COC(=O)c1ccc(I)cc1S(=O)(=O)NC(=O)Nc1nc(C)nc(OC)n1 [iodosulfuron-methyl]
Highly resistant ([2]; 10 g ai/ha (1x Iod.), Total 30): 0
Moderately resistant ([2]; 10 g ai/ha (1x Iod.), Total 30): 0
Non-resistant ([2]; 10 g ai/ha (1x Iod.), Total 30): 30
Poorly resistant ([2]; 10 g ai/ha (1x Iod.), Total 30): 0
Highly resistant ([3]; 10 g ai/ha (1x Iod.), Total 31): 0
Moderately resistant ([3]; 10 g ai/ha (1x Iod.), Total 31): 0
Non-resistant ([3]; 10 g ai/ha (1x Iod.), Total 31): 31
Poorly resistant ([3]; 10 g ai/ha (1x Iod.), Total 31): 0
Highly resistant ([4]; 10 g ai/ha (1x Iod.)): 0
Moderately resistant ([4]; 10 g ai/ha (1x Iod.)): 0
Non-resistant ([4]; 10 g ai/ha (1x Iod.)): 32
Poorly resistant ([4]; 10 g ai/ha (1x Iod.)): 0
Highly resistant ([5]; 10 g ai/ha (1x Iod.)): 0
Moderately resistant ([5]; 10 g ai/ha (1x Iod.)): 0
Non-resistant ([5]; 10 g ai/ha (1x Iod.)): 29
Poorly resistant ([5]; 10 g ai/ha (1x Iod.)): 0
Highly resistant ([6]; 10 g ai/ha (1x Iod.), Total 30): 0
Moderately resistant ([6]; 10 g ai/ha (1x Iod.), Total 30): 0
Non-resistant ([6]; 10 g ai/ha (1x Iod.), Total 30): 30
Poorly resistant ([6]; 10 g ai/ha (1x Iod.), Total 30): 0
Highly resistant ([7]; 10 g ai/ha (1x Iod.)): 0
Moderately resistant ([7]; 10 g ai/ha (1x Iod.)): 0
Non-resistant ([7]; 10 g ai/ha (1x Iod.)): 30
Poorly resistant ([7]; 10 g ai/ha (1x Iod.)): 0
Highly resistant [8]: 0
Moderately resistant [8]: 0
Non-resistant [8]: 29
Poorly resistant [8]: 0
ability of the transformed plants to degrade the herbicide [1]: did not exhibit the ability to degrade
degree of damage, transformed versus wild-type plants [1]: no difference

O=C(O)CNCP(=O)(O)O [glyphosate, N-phosphonomethylglycine]
glyphosate herbicide damage rate [9]: ~0%
glyphosate herbicide damage rate [10]: ~0%
glyphosate herbicide damage rate [11]: ~0%
glyphosate herbicide damage rate [12]: ~0%
glyphosate herbicide damage rate [13]: ~0%
glyphosate herbicide damage rate [14]: ~0%
glyphosate herbicide damage rate [15]: not less than 90%
